Measured values reported in the supplement of paper PMC10307832.

Key:
Assay in all cases: relative viability (nuclei count vs DMSO), 5 days (fraction); higher = more cells survive
[1] = compound: COC1=CC(c2cc3ccccc3[nH]2)=N/C1=C\c1[nH]c(C)cc1C [Obatoclax] + Nc1nc2[nH]cc(CCc3ccc(C(=O)N[C@@H](CCC(=O)O)C(=O)O)cc3)c2c(=O)[nH]1 [Pemetrexed] (partner 0.2 µM)
Procedure, shortened: (§1)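 Lung cancer cell lines were pin-tool dosed in 1536-well plates on the day after seeding, with either a lone drug or a fixed anchor-drug dose plus five library-drug doses (not always all listed) in √10 steps. Nuclei were counted on 4× images after 5 days. Relative viability is the ratio of treated-well to vehicle-well nuclei counts, with each value a median of duplicate plates.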

[2] = compound: COC1=CC(c2cc3ccccc3[nH]2)=N/C1=C\c1[nH]c(C)cc1C [Obatoclax] + CC(=O)c1c(C)c2cnc(Nc3ccc(N4CCNCC4)cn3)nc2n(C2CCCC2)c1=O [Palbociclib] (partner 0.5 µM)
Procedure, shortened: as §1

[3] = compound: CC(C)C[C@H](NC(=O)[C@H](Cc1ccccc1)NC(=O)c1cnccn1)B(O)O [Bortezomib] + N=C(N)NC(=N)NCCc1ccccc1 [Phenformin] (partner 250 µM)
Procedure, shortened: as §1

[4] = compound: CC(C)C[C@H](NC(=O)[C@H](Cc1ccccc1)NC(=O)c1cnccn1)B(O)O [Bortezomib] + CC1(C)CCC(c2ccc(Cl)cc2)=C(CN2CCN(c3ccc(C(=O)NS(=O)(=O)c4ccc(N[C@H](CCN5CCOCC5)CSc5ccccc5)c(S(=O)(=O)C(F)(F)F)c4)cc3)CC2)C1 [Navitoclax] (partner 0.5 µM)
Procedure, shortened: as §1

| Cell Line | relative viability ([1]; first compound 0.01 µM) | relative viability ([1]; first compound 0.03162 µM) | relative viability ([1]; first compound 0.1 µM) | relative viability ([1]; first compound 0.3162 µM) | relative viability ([1]; first compound 1 µM) | relative viability ([2]; first compound 0.01 µM) | relative viability ([2]; first compound 0.03162 µM) | relative viability ([2]; first compound 0.1 µM) | relative viability ([2]; first compound 0.3162 µM) | relative viability ([2]; first compound 1 µM) | relative viability ([3]; first compound 0.0002 µM) | relative viability ([3]; first compound 0.000632 µM) | relative viability ([3]; first compound 0.002 µM) | relative viability ([3]; first compound 0.006325 µM) | relative viability ([3]; first compound 0.02 µM) | relative viability ([4]; first compound 0.0002 µM) | relative viability ([4]; first compound 0.000632 µM) | relative viability ([4]; first compound 0.002 µM) | relative viability ([4]; first compound 0.006325 µM) | relative viability ([4]; first compound 0.02 µM) |
| --- | --- | --- | --- | --- | --- | --- | --- | --- | --- | --- | --- | --- | --- | --- | --- | --- | --- | --- | --- | --- |
| NCI-H838 | 0.237 | 0.247 | 0.233 | 0.223 | 0.198 | 0.223 | 0.219 | 0.19 | 0.195 | 0.146 | 0.6 | 0.526 | 0.64 | 0.127 | 0.115 | 1.21 | 1.21 | 1.17 | 0.171 | 0.161 |
| NCI-H1792 | 0.909 | 0.58 | 0.459 | 0.799 | 0.386 | 0.626 | 0.609 |  | 0.625 | 0.705 | 0.534 |  | 0.173 | 0.0935 | 0.0823 | 0.622 | 0.582 | 0.638 | 0.633 | 0.582 |
| H3255 | 0.54 | 0.51 | 0.498 | 0.471 | 0.597 | 0.308 | 0.299 | 0.278 | 0.327 | 0.324 | 0.368 | 0.346 | 0.334 | 0.307 | 0.288 | 0.533 | 0.557 | 0.557 | 0.105 | 0.0892 |
| EPLC-272H | 0.324 | 0.387 | 0.422 | 0.327 | 0.263 | 0.323 | 0.313 | 0.477 | 0.266 | 0.282 | 0.353 | 0.245 | 0.35 | 0.109 | 0.0723 |  |  | 1.06 | 0.0971 | 0.0714 |
| NCI-H647 | 0.207 | 0.164 | 0.19 | 0.144 | 0.116 | 0.458 | 0.321 | 0.398 | 0.151 | 0.0783 | 0.479 | 0.444 | 0.267 | 0.0466 | 0.0232 | 0.997 | 1.1 | 0.619 | 0.0302 | 0.0207 |
| LXF-289 | 0.847 | 0.907 | 0.835 | 0.94 | 0.854 | 0.588 | 0.609 | 0.588 | 0.629 | 0.613 | 0.556 | 0.507 | 0.483 | 0.076 | 0.0724 | 0.936 | 0.942 | 0.955 | 0.0537 | 0.0449 |
| NCI-H1650 | 0.397 | 0.356 | 0.361 | 0.377 | 0.331 | 0.344 | 0.407 | 0.316 | 0.24 | 0.145 | 0.385 | 0.303 | 0.139 | 0.16 | 0.149 | 1.17 | 1.17 | 0.191 | 0.119 | 0.106 |
| NCI-H1755 | 0.444 | 0.612 | 0.433 | 0.413 | 0.452 | 0.427 | 0.447 | 0.458 | 0.497 | 0.426 | 0.683 | 0.596 | 0.592 | 0.23 | 0.229 | 0.975 | 0.979 | 0.917 | 0.269 | 0.165 |
